Tests used:
[1] = system: differentiated L6-myotubes; assay: cAMP production relative to isoprenaline (Biological example 2 of WO 2019/053427); assay type: cell-based; details: 0.25 h, compound at 10 μM, activity relative to isoproterenol at 10 μM
Summary of the method: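 Values are cAMP levels relative to isoprenaline at equal concentration (final 1×10^−5 M for both). Stimulation lasted 15 min in differentiated L6 myotubes, using HBSS buffer (pH 7.4) containing 1 mM IBMX, 5 mM HEPES and 1% BSA.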

[2] = system: differentiated L6-myotubes; assay: Glucose uptake screen (Biological example 1 of WO 2019/053427); assay type: cell-based; details: compound at 10 μM, activity relative to isoproterenol at 10 μM, read-out: Biological example 1 of WO 2019/053427 (GU)
Summary of the method: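 Uptake was read out as ^3H-2-deoxyglucose (50 nM, 10 min) radioactivity in NaOH lysates. Beforehand, overnight-starved, differentiated L6 myotubes received compound at 1×10^−5 M with ICI-118551 present for 1 h 40 min, followed by fresh agonist for a further 20 min in glucose-free medium.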

CC12CCC([C@H](O)c3ccccc3Cl)(CC1)N2 [Compound 195, (R)-(o-chlorophenyl)(4-methyl-7-azabicyclo[2.2.1]hept-1-yl)methanol]
Emax at 10 µM [1]: < 25% | Emax at 10 µM [2]: > 75%

CC12CCC([C@@H](O)c3cccc(Cl)c3)(CC1)N2 [Compound 196, (S)-(m-chlorophenyl)(4-methyl-7-azabicyclo[2.2.1]hept-1-yl)methanol]
Emax at 10 µM [1]: < 25% | Emax at 10 µM [2]: 25 to 50%

CC12CCC([C@H](O)c3cccc(Cl)c3)(CC1)N2 [Compound 197, (R)-(m-chlorophenyl)(4-methyl-7-azabicyclo[2.2.1]hept-1-yl)methanol]
Emax at 10 µM [1]: < 25% | Emax at 10 µM [2]: > 75%

CC1(C)C[C@H]([C@H](O)c2cccc(F)c2)N1 [Compound 198, (R)-[(R)-4,4-dimethyl-2-azetidinyl](m-fluorophenyl)methanol]
Emax at 10 µM [1]: 25 to 50% | Emax at 10 µM [2]: > 75%

CC1(C)C[C@@H]([C@@H](O)c2cccc(F)c2)N1 [Compound 199, (S)-[(S)-4,4-dimethyl-2-azetidinyl](m-fluorophenyl)methanol]
Emax at 10 µM [1]: < 25% | Emax at 10 µM [2]: 25 to 50%

CC1(C)C[C@@H]([C@H](O)c2cccc(F)c2)N1 [Compound 200, (R)-[(S)-4,4-dimethyl-2-azetidinyl](m-fluorophenyl)methanol]
Emax at 10 µM [1]: < 25% | Emax at 10 µM [2]: < 25%

CC1(C)C[C@H]([C@@H](O)c2cccc(F)c2)N1 [Compound 201, (S)-[(R)-4,4-dimethyl-2-azetidinyl](m-fluorophenyl)methanol]
Emax at 10 µM [1]: < 25% | Emax at 10 µM [2]: < 25%

CC1(C)C[C@@H]([C@H](O)c2ccccc2F)N1 [Compound 202, (R)-[(S)-4,4-dimethyl-2-azetidinyl](o-fluorophenyl)methanol]
Emax at 10 µM [1]: < 25% | Emax at 10 µM [2]: < 25%

CC1(C)C[C@H]([C@@H](O)c2ccccc2F)N1 [Compound 203, (S)-[(R)-4,4-dimethyl-2-azetidinyl](o-fluorophenyl)methanol]
Emax at 10 µM [1]: < 25% | Emax at 10 µM [2]: 25 to 50%

CC1(C)C[C@H]([C@H](O)c2ccccc2F)N1 [Compound 204, (R)-[(R)-4,4-dimethyl-2-azetidinyl](o-fluorophenyl)methanol]
Emax at 10 µM [1]: 25 to 50% | Emax at 10 µM [2]: > 75%

CC1(C)C[C@@H]([C@@H](O)c2ccccc2F)N1 [Compound 205, (S)-[(S)-4,4-dimethyl-2-azetidinyl](o-fluorophenyl)methanol]
Emax at 10 µM [1]: < 25% | Emax at 10 µM [2]: 25 to 50%

CC12CC(C1)[C@H]([C@H](O)c1cccc(Cl)c1)N2 [Compound 206, (R)-{(R)-1-methyl-2-azabicyclo[2.1.1]hex-3-yl}(m-chlorophenyl)methanol]
Emax at 10 µM [1]: < 25% | Emax at 10 µM [2]: > 75%

CC12CC(C1)[C@@H]([C@@H](O)c1cccc(Cl)c1)N2 [Compound 207, (S)-{(S)-1-methyl-2-azabicyclo[2.1.1]hex-3-yl}(m-chlorophenyl)methanol]
Emax at 10 µM [1]: < 25% | Emax at 10 µM [2]: 25 to 50%

CC12CC(C1)[C@H]([C@@H](O)c1cccc(Cl)c1)N2 [Compound 208, (S)-{(R)-1-methyl-2-azabicyclo[2.1.1]hex-3-yl}(m-chlorophenyl)methanol]
Emax at 10 µM [1]: < 25% | Emax at 10 µM [2]: 50 to 75%

CC12CC(C1)[C@@H]([C@H](O)c1cccc(Cl)c1)N2 [Compound 209, (R)-{(S)-1-methyl-2-azabicyclo[2.1.1]hex-3-yl}(m-chlorophenyl)methanol]
Emax at 10 µM [1]: < 25% | Emax at 10 µM [2]: 25 to 50%

CC12CC(C1)[C@H]([C@H](O)c1ccccc1F)N2 [Compound 210, (R)-{(R)-1-methyl-2-azabicyclo[2.1.1]hex-3-yl}(o-fluorophenyl)methanol]
Emax at 10 µM [1]: > 75% | Emax at 10 µM [2]: > 75%

CC12CC(C1)[C@@H]([C@@H](O)c1ccccc1F)N2 [Compound 211, (S)-{(S)-1-methyl-2-azabicyclo[2.1.1]hex-3-yl}(o-fluorophenyl)methanol]
Emax at 10 µM [1]: < 25% | Emax at 10 µM [2]: > 75%

CC12CC(C1)[C@H]([C@@H](O)c1ccccc1F)N2 [Compound 212, (S)-{(R)-1-methyl-2-azabicyclo[2.1.1]hex-3-yl}(o-fluorophenyl)methanol]
Emax at 10 µM [1]: < 25% | Emax at 10 µM [2]: > 75%

CC12CC(C1)[C@@H]([C@H](O)c1ccccc1F)N2 [Compound 213, (R)-{(S)-1-methyl-2-azabicyclo[2.1.1]hex-3-yl}(o-fluorophenyl)methanol]
Emax at 10 µM [1]: < 25% | Emax at 10 µM [2]: > 75%

CC1(C)C[C@H]([C@H](O)c2cncc(F)c2)N1 [Compound 214, (R)-[(R)-4,4-dimethyl-2-azetidinyl](5-fluoro-3-pyridyl)methanol]
Emax at 10 µM [1]: < 25% | Emax at 10 µM [2]: > 75%

CC1(C)C[C@@H]([C@@H](O)c2cncc(F)c2)N1 [Compound 215, (S)-[(S)-4,4-dimethyl-2-azetidinyl](5-fluoro-3-pyridyl)methanol]
Emax at 10 µM [1]: < 25% | Emax at 10 µM [2]: 25 to 50%

CC1(C)C[C@@H]([C@H](O)c2cncc(F)c2)N1 [Compound 216, (R)-[(S)-4,4-dimethyl-2-azetidinyl](5-fluoro-3-pyridyl)methanol]
Emax at 10 µM [1]: < 25% | Emax at 10 µM [2]: 25 to 50%

CC1(C)C[C@H]([C@@H](O)c2cncc(F)c2)N1 [Compound 217, (S)-[(R)-4,4-dimethyl-2-azetidinyl](5-fluoro-3-pyridyl)methano]
Emax at 10 µM [1]: < 25% | Emax at 10 µM [2]: 25 to 50%

CCC[C@@H]1CCCC[C@H]([C@@H](O)c2cncc(F)c2)N1 [Compound 218, (S)-[(2R,7R)-7-propyl-2-azepanyl](5-fluoro-3-pyridyl)methanol]
Emax at 10 µM [1]: < 25% | Emax at 10 µM [2]: < 25%

CCC[C@@H]1CCCC[C@H]([C@H](O)c2cncc(F)c2)N1 [Compound 219, (R)-[(2R,7R)-7-propyl-2-azepanyl](5-fluoro-3-pyridyl)methanol]
Emax at 10 µM [1]: < 25% | Emax at 10 µM [2]: < 25%

CC12CC(C1)[C@H]([C@H](O)c1cncc(F)c1)N2 [Compound 220, (R)-{(R)-1-methyl-2-azabicyclo[2.1.1]hex-3-yl}(5-fluoro-3-pyridyl)methanol]
Emax at 10 µM [1]: < 25% | Emax at 10 µM [2]: > 75%

CC12CC(C1)[C@@H]([C@@H](O)c1cncc(F)c1)N2 [Compound 221, (S)-{(S)-1-methyl-2-azabicyclo[2.1.1]hex-3-yl}(5-fluoro-3-pyridyl)methanol]
Emax at 10 µM [1]: < 25% | Emax at 10 µM [2]: 50 to 75%

CC12CC(C1)[C@H]([C@@H](O)c1cncc(F)c1)N2 [Compound 222, (S)-{(R)-1-methyl-2-azabicyclo[2.1.1]hex-3-yl}(5-fluoro-3-pyridyl)methanol]
Emax at 10 µM [1]: < 25% | Emax at 10 µM [2]: < 25%

CC12CC(C1)[C@@H]([C@H](O)c1cncc(F)c1)N2 [Compound 223, (R)-{(S)-1-methyl-2-azabicyclo[2.1.1]hex-3-yl}(5-fluoro-3-pyridyl)methanol]
Emax at 10 µM [1]: < 25% | Emax at 10 µM [2]: 25 to 50%

CO[C@H]1CC[C@H](CCNC[C@H](O)c2cccc(F)c2)CC1 [Compound 224, (R)-1-(m-fluorophenyl)-2-{2-[(1r,4R)-4-methoxycyclohexyl]ethyl-amino}-1-ethanol]
Emax at 10 µM [1]: < 25% | Emax at 10 µM [2]: 25 to 50%

CO[C@H]1CC[C@H](CCNC[C@H](O)c2cncc(F)c2)CC1 [Compound 225, (R)-1-(5-fluoro-3-pyridyl)-2-{2-[(1r,4R)-4-methoxycyclohexyl]ethyl-amino}-1-ethanol]
Emax at 10 µM [1]: < 25% | Emax at 10 µM [2]: 50 to 75%

CC1(C)CC[C@H]([C@@H](O)c2cccc(N)c2F)N1 [Compound 226, (S)-[(R)-5,5-dimethyl-2-pyrrolidinyl](3-amino-2-fluorophenyl)methanol]
Emax at 10 µM [1]: < 25% | Emax at 10 µM [2]: 25 to 50%

CC1(C)CC[C@H]([C@H](O)c2cccc(N)c2F)N1 [Compound 227, (R)-[(R)-5,5-dimethyl-2-pyrrolidinyl](3-amino-2-fluorophenyl)methanol]
Emax at 10 µM [1]: < 25% | Emax at 10 µM [2]: > 75%

CO[C@H]1CC[C@H](CNC[C@H](O)c2cccc(F)c2)CC1 [Compound 228, (R)-1-(m-fluorophenyl)-2-({[(1r,4R)-4-methoxycyclohexyl]meth-yl}amino)-1-ethanol]
Emax at 10 µM [1]: < 25% | Emax at 10 µM [2]: 50 to 75%

CO[C@H]1CC[C@H](CNC[C@H](O)c2cncc(F)c2)CC1 [Compound 229, (R)-1-(5-fluoro-3-pyridyl)-2-({[(1r,4R)-4-methoxycyclohexyl]meth-yl}amino)-1-ethanol]
Emax at 10 µM [1]: < 25% | Emax at 10 µM [2]: 50 to 75%

CC1(C)C[C@H]([C@H](O)c2cccc(Cl)c2)N1 [Compound 230, (R)-[(R)-4,4-dimethyl-2-azetidinyl](m-chlorophenyl)methanol]
Emax at 10 µM [1]: < 25% | Emax at 10 µM [2]: > 75%

CC1(C)C[C@@H]([C@@H](O)c2cccc(Cl)c2)N1 [Compound 231, (S)-[(S)-4,4-dimethyl-2-azetidinyl](m-chlorophenyl)methanol]
Emax at 10 µM [1]: < 25% | Emax at 10 µM [2]: 25 to 50%

CC1(C)C[C@@H]([C@H](O)c2cccc(Cl)c2)N1 [Compound 232, (R)-[(S)-4,4-dimethyl-2-azetidinyl](m-chlorophenyl)methanol]
Emax at 10 µM [1]: < 25% | Emax at 10 µM [2]: 25 to 50%

CC1(C)C[C@H]([C@@H](O)c2cccc(Cl)c2)N1 [Compound 233, (S)-[(R)-4,4-dimethyl-2-azetidinyl](m-chlorophenyl)methanol]
Emax at 10 µM [1]: < 25% | Emax at 10 µM [2]: < 25%
